Laboratory results: ChEMBL document CHEMBL3352654, “Synthesis, biological evaluation and SAR analysis of O-alkylated analogs of quercetin for anticancer” (Bioorg Med Chem Lett, 2014)

How the values were obtained:
Assay type in all cases: functional, cell-based
[1] = Anticancer activity against human 292G cells by HTS assay
[2] = Anticancer activity against human Calu1 cells by HTS assay; details: Calu-1
[3] = Anticancer activity against human M4E cells by HTS assay
[4] = Anticancer activity against human LOXIMVI cells by HTS assay; details: LOX IMVI
[5] = test system: NCI-H157; test: Anticancer activity against human NCI-H157 cells by HTS assay
[6] = test system: NCI-H1792; test: Anticancer activity against human NCI-H1792 cells by HTS assay
[7] = test system: NCI-H522; test: Anticancer activity against human NCI-H522 cells by HTS assay
[8] = test system: HOP-62; test: Anticancer activity against human HOP62 cells by HTS assay
[9] = Anticancer activity against human SKBR cells by HTS assay
[10] = Anticancer activity against human H460 cells by HTS assay; details: NCI-H460
[11] = Anticancer activity against human NCI-H1944 cells by HTS assay
[12] = test system: HeLa; test: Anticancer activity against human HeLa cells by HTS assay
[13] = test system: A549; test: Anticancer activity against human A549 cells by HTS assay
[14] = Anticancer activity against human […] cells by HTS assay
[15] = Anticancer activity against human H1299 cells by HTS assay; details: NCI-H1299
[16] = test system: M14; test: Anticancer activity against human M14 cells by HTS assay

IC50 [1] [µM]	IC50 [2] [µM]	IC50 [3] [µM]	IC50 [4] [µM]	IC50 [5] [µM]	IC50 [6] [µM]	IC50 [7] [µM]	IC50 [8] [µM]	IC50 [9] [µM]	IC50 [10] [µM]	IC50 [11] [µM]	IC50 [12] [µM]	IC50 [13] [µM]	IC50 [14] [µM]	IC50 [15] [µM]	IC50 [16] [µM]	SMILES
> 50	> 50	21.4	19.4	> 50	> 50	> 50	44	> 50	22.1	> 50	> 50	47.6	> 50	24.9	> 50	CCOc1cc(O)c2c(=O)c(OCC)c(-c3ccc(OCC)c(OCC)c3)oc2c1
> 50	> 50	> 50	> 50	> 50	> 50	> 50	> 50	> 50	> 50	0.39	> 50	> 50	> 50	> 50	> 50	CCOc1c(-c2ccc(O)c(O)c2)oc2cc(O)cc(O)c2c1=O
28.5	26.5	27.4	> 50	10.2	13.3	49.5	21.9	18	12.2	21.4	21.6	13.9	31.1	46.5	25.4	CCCOc1ccc(-c2oc3cc(O)cc(O)c3c(=O)c2O)cc1O
> 50	> 50	> 50	> 50	> 50	> 50	> 50	> 50	> 50	> 50	> 50	> 50	47.9	> 50	> 50	> 50	CCCOc1cc(O)c2c(=O)c(OCCC)c(-c3ccc(OCCC)c(OCCC)c3)oc2c1
> 50	> 50	48.2	> 50	> 50	> 50	> 50	36	12	28.8	4.75	12.9	18.6	> 50	22.8	34	CCCOc1cc(O)c2c(=O)c(OCCC)c(-c3ccc(OCCC)c(O)c3)oc2c1
49.5	> 50	38.6	> 50	18.7	24.1	> 50	35.5	13.9	9.91	23.6	6.09	8.14	> 50	46.8	> 50	COc1c(-c2ccc(O)c(O)c2)oc2cc(O)cc(O)c2c1=O [3-O-METHYLQUERCETIN]
17.2	37.4	20.4	15.2	8.09	2.51	> 50	10.6	6.26	5.25	10.1	0.91	1.19	29.1	12.8	20.3	CCOc1cc(O)c2c(=O)c(OCC)c(-c3ccc(O)c(O)c3)oc2c1
12.5	24.9	19.9	> 50	3.04	4.06	> 50	9.93	7.97	4.45	3.86	1.81	2.63	7.57	22	14.8	COc1ccc(-c2oc3cc(O)cc(O)c3c(=O)c2O)cc1O [TAMARIXETIN]
> 50	> 50	18	> 50	> 50	> 50	> 50	36.3	6.66	15.6	4.72	14.6	22.6	> 50	48.5	> 50	CCOc1cc(O)c2c(=O)c(OCC)c(-c3ccc(OCC)c(O)c3)oc2c1
40.7	> 50	30.7	> 50	3.45	3.36	17.4	12.1	8.3	2.75	2.86	1.49	3.07	> 50	34.8	4.29	COc1cc(O)c2c(=O)c(O)c(-c3ccc(OC)c(O)c3)oc2c1 [OMBUINE]
9.89	25.3	17.1	28.8	6.1	10.5	17.7	12.4	6.72	6.84	5.85	9.48	5.44	18.2	16	19.4	CCCCOc1ccc(-c2oc3cc(O)cc(O)c3c(=O)c2O)cc1O
28.9	> 50	18.9	26.3	6.32	4.57	12.6	21	9.18	19.7	7.04	10.6	13.4	31.7	> 50	25.6	CCCCOc1c(-c2ccc(O)c(O)c2)oc2cc(O)cc(O)c2c1=O
> 50	> 50	> 50	49.4	> 50	> 50	7.21	30.2	> 50	9.7	42.4	20.2	22.6	25.5	21.8	> 50	CCOc1cc(O)c2c(=O)c(O)c(-c3ccc(OCC)c(O)c3)oc2c1
4.11	1.5	6.18	1.14	0.67	1	22.1	4.45	3.19	1.03	1.78	1.2	1.24	2.85	1.77	0.94	CCOc1ccc(-c2oc3cc(O)cc(O)c3c(=O)c2O)cc1O
> 50	31.9	> 50	> 50	40.9	30.6	> 50	47.2	34.5	31.1	> 50	47	26.2	> 50	> 50	> 50	CCCOc1cc(O)c2c(=O)c(OCCC)c(-c3ccc(O)c(O)c3)oc2c1
17.7	6.21	6.29	2.36	0.39	3.09	35.6	4.43	4.39	3.16	0.56	0.87	2.06	15.9	4.54	9.35	CCCCOc1cc(O)c2c(=O)c(O)c(-c3ccc(OCCCC)c(O)c3)oc2c1

SMILES	IC50 [1] [µM]	IC50 [2] [µM]	IC50 [3] [µM]	IC50 [4] [µM]	IC50 [5] [µM]	IC50 [6] [µM]	IC50 [7] [µM]	IC50 [8] [µM]	IC50 [9] [µM]	IC50 [10] [µM]	IC50 [11] [µM]	IC50 [12] [µM]	IC50 [13] [µM]	IC50 [14] [µM]	IC50 [15] [µM]	IC50 [16] [µM]
O=c1c(O)c(-c2ccc(O)c(O)c2)oc2cc(O)cc(O)c12 [QUERCETIN]	> 50	23.6	21.7	4.65	6	3.85	5.77	7.52	16.7	9.62	10.2	3.56	6.2	16.9	13.6	12.8
